In PMC6886798, “Expression of myeloid Src-family kinases is associated with poor prognosis in AML and influences Flt3-ITD kinase inhibitor acquired resistance” (PLoS ONE, 2019):

Legend:
Assay in all cases: KINOMEscan
Type in all cases: binding
Conditions in all cases: 1.0 µM
[1] = target: T1, ABL1(E255K)-phosphorylated (Homo sapiens, UniProt P00519, E255K)
T1 construct: purchased Eurofins/DiscoverX KINOMEscan scanMAX
Experimental: (§1) Kinase retention to the immobilized ligand is then measured using quantitative real-time PCR for each kinase-specific DNA barcode.

HIPK1 = target: T2, HIPK1 (Homo sapiens, UniProt Q86Z02)
T2 construct: purchased Eurofins/DiscoverX KINOMEscan scanMAX
Experimental: as §1

FLT1 = target: T3, FLT1 (Homo sapiens, UniProt P17948)
T3 construct: purchased Eurofins/DiscoverX KINOMEscan scanMAX
T3 sequence (P17948 27-1338): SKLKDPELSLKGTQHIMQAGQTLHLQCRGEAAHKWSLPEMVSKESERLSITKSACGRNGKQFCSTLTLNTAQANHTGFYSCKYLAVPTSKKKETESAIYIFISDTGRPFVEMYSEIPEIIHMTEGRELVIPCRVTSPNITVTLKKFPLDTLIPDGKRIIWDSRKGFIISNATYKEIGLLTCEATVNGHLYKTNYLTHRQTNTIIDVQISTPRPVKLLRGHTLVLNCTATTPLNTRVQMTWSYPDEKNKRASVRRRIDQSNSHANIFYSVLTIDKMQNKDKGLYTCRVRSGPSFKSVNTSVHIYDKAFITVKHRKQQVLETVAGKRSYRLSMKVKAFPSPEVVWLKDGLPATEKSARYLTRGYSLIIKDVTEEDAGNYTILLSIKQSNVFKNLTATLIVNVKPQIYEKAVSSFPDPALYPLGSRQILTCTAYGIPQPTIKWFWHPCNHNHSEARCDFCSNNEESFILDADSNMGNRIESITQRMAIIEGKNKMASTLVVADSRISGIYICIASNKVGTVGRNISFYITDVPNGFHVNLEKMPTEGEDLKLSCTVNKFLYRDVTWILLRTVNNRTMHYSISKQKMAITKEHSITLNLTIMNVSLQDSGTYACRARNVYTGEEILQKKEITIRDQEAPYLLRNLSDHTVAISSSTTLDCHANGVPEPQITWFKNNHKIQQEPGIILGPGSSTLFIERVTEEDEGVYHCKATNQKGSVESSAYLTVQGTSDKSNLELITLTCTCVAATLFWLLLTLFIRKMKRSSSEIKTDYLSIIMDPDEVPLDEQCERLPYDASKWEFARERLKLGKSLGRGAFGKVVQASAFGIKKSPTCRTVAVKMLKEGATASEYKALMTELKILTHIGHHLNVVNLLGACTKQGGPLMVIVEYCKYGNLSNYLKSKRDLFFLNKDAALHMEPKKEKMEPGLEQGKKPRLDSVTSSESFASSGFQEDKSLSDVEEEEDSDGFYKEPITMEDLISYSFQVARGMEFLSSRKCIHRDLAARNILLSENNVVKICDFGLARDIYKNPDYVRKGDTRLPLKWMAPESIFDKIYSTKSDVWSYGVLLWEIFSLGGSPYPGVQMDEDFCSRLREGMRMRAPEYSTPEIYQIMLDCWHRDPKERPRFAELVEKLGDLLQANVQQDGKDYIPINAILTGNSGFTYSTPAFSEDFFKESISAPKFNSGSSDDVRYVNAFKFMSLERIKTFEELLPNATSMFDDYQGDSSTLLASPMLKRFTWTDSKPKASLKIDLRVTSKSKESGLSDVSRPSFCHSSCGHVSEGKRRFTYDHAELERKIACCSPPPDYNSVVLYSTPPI
Experimental: as §1

ERBB3 = target: T4, ERBB3 (Homo sapiens, UniProt P21860)
T4 construct: purchased Eurofins/DiscoverX KINOMEscan scanMAX
Experimental: as §1

MLCK = target: T5, MLCK (Homo sapiens, UniProt Q32MK0)
T5 construct: purchased Eurofins/DiscoverX KINOMEscan scanMAX
Experimental: as §1

MYO3A = target: T6, MYO3A (Homo sapiens, UniProt Q8NEV4)
T6 construct: purchased Eurofins/DiscoverX KINOMEscan scanMAX
Experimental: as §1

CDK11 = target: T7, CDK11 (Homo sapiens, UniProt Q9BWU1)
T7 construct: purchased Eurofins/DiscoverX KINOMEscan scanMAX
T7 sequence (Q9BWU1 whole entry): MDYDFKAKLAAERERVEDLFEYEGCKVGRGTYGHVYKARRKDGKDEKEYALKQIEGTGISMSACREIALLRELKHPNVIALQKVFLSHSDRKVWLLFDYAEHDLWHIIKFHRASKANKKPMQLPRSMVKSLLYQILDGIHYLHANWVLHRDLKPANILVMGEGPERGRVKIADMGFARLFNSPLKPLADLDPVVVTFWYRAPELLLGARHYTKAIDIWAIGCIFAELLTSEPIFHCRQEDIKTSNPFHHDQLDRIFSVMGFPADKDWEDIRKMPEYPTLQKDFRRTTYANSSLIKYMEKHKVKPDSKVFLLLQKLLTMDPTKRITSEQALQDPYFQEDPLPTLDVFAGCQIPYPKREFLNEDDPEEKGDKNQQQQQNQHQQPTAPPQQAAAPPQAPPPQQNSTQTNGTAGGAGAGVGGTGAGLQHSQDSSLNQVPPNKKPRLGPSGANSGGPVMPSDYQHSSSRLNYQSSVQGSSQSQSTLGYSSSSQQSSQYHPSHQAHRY
Experimental: as §1

PIP5K1C = target: T8, PIP5K1C (Homo sapiens, UniProt O60331)
T8 construct: purchased Eurofins/DiscoverX KINOMEscan scanMAX
Experimental: as §1

MKNK1 = target: T9, MKNK1 (Homo sapiens, UniProt Q9BUB5)
T9 construct: purchased Eurofins/DiscoverX KINOMEscan scanMAX
T9 sequence (Q9BUB5 whole entry): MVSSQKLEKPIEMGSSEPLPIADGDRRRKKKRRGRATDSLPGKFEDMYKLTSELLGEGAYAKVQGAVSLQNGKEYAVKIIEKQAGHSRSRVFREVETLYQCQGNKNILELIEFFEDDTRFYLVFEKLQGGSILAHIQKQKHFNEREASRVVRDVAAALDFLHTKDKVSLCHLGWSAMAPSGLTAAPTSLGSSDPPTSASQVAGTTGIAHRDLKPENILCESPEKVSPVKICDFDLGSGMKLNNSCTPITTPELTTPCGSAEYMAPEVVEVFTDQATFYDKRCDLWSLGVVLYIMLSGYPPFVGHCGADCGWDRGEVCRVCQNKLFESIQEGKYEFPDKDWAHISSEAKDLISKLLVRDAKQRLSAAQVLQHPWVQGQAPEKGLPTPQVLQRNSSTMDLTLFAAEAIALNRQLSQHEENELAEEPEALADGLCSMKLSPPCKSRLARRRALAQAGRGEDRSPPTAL
Experimental: as §1

EPHB4 = target: T10, EPHB4 (Homo sapiens, UniProt P54760)
T10 construct: purchased Eurofins/DiscoverX KINOMEscan scanMAX
T10 sequence (P54760 16-987): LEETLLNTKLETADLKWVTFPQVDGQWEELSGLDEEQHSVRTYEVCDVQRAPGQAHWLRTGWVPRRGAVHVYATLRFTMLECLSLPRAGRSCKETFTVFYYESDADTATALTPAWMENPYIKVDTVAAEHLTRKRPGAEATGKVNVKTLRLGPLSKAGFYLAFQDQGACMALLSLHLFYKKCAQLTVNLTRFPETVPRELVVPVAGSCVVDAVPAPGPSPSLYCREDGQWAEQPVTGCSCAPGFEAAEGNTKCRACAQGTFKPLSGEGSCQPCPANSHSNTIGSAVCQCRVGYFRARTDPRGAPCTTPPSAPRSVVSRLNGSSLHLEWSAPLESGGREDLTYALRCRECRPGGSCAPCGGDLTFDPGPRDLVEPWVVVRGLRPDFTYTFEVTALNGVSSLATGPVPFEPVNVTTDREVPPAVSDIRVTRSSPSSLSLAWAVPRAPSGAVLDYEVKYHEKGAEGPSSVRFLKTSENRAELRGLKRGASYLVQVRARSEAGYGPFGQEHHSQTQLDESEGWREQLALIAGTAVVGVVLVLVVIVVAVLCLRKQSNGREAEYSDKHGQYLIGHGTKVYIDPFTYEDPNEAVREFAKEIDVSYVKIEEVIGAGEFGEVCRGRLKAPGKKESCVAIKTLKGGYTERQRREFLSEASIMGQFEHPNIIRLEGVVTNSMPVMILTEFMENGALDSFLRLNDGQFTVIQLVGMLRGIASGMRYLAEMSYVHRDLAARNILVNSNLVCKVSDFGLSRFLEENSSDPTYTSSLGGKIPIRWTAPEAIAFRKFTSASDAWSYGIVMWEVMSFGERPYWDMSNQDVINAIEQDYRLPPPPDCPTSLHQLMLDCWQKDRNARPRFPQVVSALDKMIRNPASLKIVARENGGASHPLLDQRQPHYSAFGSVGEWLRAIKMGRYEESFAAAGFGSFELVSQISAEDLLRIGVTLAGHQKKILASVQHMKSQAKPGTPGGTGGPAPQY
Experimental: as §1

LIMK1 = target: T11, LIMK1 (Homo sapiens, UniProt P53667)
T11 construct: purchased Eurofins/DiscoverX KINOMEscan scanMAX
Experimental: as §1

GRK7 = target: T12, GRK7 (Homo sapiens, UniProt Q8WTQ7)
T12 construct: purchased Eurofins/DiscoverX KINOMEscan scanMAX
Experimental: as §1

PRKCD = target: T13, PRKCD (Homo sapiens, UniProt Q05655)
T13 construct: purchased Eurofins/DiscoverX KINOMEscan scanMAX
T13 sequence (Q05655 whole entry): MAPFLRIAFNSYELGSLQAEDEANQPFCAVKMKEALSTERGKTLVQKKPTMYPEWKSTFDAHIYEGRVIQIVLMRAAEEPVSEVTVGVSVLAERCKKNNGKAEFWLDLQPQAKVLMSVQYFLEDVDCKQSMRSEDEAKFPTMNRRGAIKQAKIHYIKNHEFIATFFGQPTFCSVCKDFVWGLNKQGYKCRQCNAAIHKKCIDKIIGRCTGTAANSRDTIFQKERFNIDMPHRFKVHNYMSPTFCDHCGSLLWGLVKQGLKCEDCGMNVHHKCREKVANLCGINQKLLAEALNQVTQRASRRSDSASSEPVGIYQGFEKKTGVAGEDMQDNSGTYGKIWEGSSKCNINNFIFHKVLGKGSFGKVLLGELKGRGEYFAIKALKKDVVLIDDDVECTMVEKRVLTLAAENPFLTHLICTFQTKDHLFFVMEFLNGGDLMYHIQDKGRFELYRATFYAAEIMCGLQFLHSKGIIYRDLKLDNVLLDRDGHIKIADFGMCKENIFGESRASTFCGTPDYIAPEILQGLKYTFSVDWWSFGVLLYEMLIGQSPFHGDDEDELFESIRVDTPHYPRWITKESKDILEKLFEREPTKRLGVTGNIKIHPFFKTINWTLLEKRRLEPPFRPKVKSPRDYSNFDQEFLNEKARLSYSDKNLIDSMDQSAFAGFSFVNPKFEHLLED
Experimental: as §1

PIK3CA(Q546K) = target: T14, PIK3CA(Q546K) (Homo sapiens, UniProt P42336, Q546K)
T14 construct: purchased Eurofins/DiscoverX KINOMEscan scanMAX
Experimental: as §1

ERK8 = target: T15, ERK8 (Homo sapiens, UniProt Q8TD08)
T15 construct: purchased Eurofins/DiscoverX KINOMEscan scanMAX
Experimental: as §1

KIT = target: T16, KIT (Homo sapiens, UniProt P10721)
T16 construct: purchased Eurofins/DiscoverX KINOMEscan scanMAX
T16 sequence (P10721 26-976): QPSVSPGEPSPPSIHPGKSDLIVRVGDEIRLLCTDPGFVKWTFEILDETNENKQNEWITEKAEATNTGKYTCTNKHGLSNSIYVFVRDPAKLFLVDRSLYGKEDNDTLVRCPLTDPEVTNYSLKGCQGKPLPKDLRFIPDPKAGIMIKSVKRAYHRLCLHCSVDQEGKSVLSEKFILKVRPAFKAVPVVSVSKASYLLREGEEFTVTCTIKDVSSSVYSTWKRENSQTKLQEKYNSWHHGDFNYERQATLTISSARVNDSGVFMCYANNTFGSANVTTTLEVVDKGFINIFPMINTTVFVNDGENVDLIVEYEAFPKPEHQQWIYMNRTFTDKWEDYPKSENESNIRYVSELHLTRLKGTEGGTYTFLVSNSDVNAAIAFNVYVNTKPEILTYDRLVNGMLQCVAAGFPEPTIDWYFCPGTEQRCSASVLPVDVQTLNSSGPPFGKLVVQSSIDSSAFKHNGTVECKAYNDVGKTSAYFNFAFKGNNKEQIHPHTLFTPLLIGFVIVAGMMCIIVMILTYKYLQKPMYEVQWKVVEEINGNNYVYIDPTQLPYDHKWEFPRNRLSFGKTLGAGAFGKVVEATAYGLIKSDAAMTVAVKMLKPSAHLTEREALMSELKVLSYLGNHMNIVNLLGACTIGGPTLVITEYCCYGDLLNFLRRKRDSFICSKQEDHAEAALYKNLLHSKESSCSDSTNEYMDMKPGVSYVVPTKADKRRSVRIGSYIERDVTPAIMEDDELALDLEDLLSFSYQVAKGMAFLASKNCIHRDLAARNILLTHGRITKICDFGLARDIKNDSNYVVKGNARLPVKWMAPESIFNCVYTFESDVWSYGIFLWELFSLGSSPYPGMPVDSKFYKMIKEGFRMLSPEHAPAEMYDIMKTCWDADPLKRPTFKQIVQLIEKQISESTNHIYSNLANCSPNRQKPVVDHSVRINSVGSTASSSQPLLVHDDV
Experimental: as §1

PKAC-alpha = target: T17, PKAC-alpha (Homo sapiens, UniProt P17612)
T17 construct: purchased Eurofins/DiscoverX KINOMEscan scanMAX
Experimental: as §1

S6K1 = target: T18, S6K1 (Homo sapiens, UniProt P23443)
T18 construct: purchased Eurofins/DiscoverX KINOMEscan scanMAX
Experimental: as §1

WNK3 = target: T19, WNK3 (Homo sapiens, UniProt Q9BYP7)
T19 construct: DNA tag (qPCR barcode); purchased Eurofins/DiscoverX KINOMEscan scanMAX
Experimental: as §1

PKAC-beta = target: T20, PKAC-beta (Homo sapiens, UniProt P22694)
T20 construct: purchased Eurofins/DiscoverX KINOMEscan scanMAX
Experimental: as §1

BRSK2 = target: T21, BRSK2 (Homo sapiens, UniProt Q8IWQ3)
T21 construct: purchased Eurofins/DiscoverX KINOMEscan scanMAX
Experimental: as §1

p38-delta = target: T22, p38-delta (Homo sapiens, UniProt O15264)
T22 construct: purchased Eurofins/DiscoverX KINOMEscan scanMAX
Experimental: as §1

DRAK1 = target: T23, DRAK1 (Homo sapiens, UniProt Q9UEE5)
T23 construct: purchased Eurofins/DiscoverX KINOMEscan scanMAX
Experimental: as §1

[2] = target: T24, ABL1(Y253F)-phosphorylated (Homo sapiens, UniProt P00519, Y253F)
T24 construct: purchased Eurofins/DiscoverX KINOMEscan scanMAX
Experimental: as §1

FGFR3 = target: T25, FGFR3 (Homo sapiens, UniProt P22607)
T25 construct: purchased Eurofins/DiscoverX KINOMEscan scanMAX
Experimental: as §1

[3] = target: T26, ABL1(Q252H)-phosphorylated (Homo sapiens, UniProt P00519, Q252H)
T26 construct: purchased Eurofins/DiscoverX KINOMEscan scanMAX
Experimental: as §1

MLK1 = target: T27, MLK1 (Homo sapiens, UniProt P80192)
T27 construct: purchased Eurofins/DiscoverX KINOMEscan scanMAX
Experimental: as §1

CTK = target: T28, CTK (Homo sapiens, UniProt P42679)
T28 construct: purchased Eurofins/DiscoverX KINOMEscan scanMAX
Experimental: as §1

KIT-autoinhibited = target: T29, KIT-autoinhibited (Homo sapiens, UniProt P10721)
T29 construct: purchased Eurofins/DiscoverX KINOMEscan scanMAX
T29 sequence (P10721 26-976): as above
Experimental: as §1

PIK3CA(E545A) = target: T30, PIK3CA(E545A) (Homo sapiens, UniProt P42336, E545A)
T30 construct: purchased Eurofins/DiscoverX KINOMEscan scanMAX
Experimental: as §1

PIK3CD = target: T31, PIK3CD (Homo sapiens, UniProt O00329)
T31 construct: purchased Eurofins/DiscoverX KINOMEscan scanMAX
Experimental: as §1

EPHB3 = target: T32, EPHB3 (Homo sapiens, UniProt P54753)
T32 construct: purchased Eurofins/DiscoverX KINOMEscan scanMAX
Experimental: as §1

YSK1 = target: T33, YSK1 (Homo sapiens, UniProt O00506)
T33 construct: purchased Eurofins/DiscoverX (KINOMEscan scanMAX service)
Experimental: as §1

KIT(V559D,T670I) = target: T34, KIT(V559D,T670I) (Homo sapiens, UniProt P10721, T670I/V559D)
T34 construct: purchased Eurofins/DiscoverX KINOMEscan scanMAX
T34 sequence (P10721 26-976 V559D/T670I): as the sequence (P10721 26-976) above, with V534D, T645I counted along it
Experimental: as §1

MAP3K1 = target: T35, MAP3K1 (Homo sapiens, UniProt Q13233)
T35 construct: purchased Eurofins/DiscoverX KINOMEscan scanMAX
Experimental: as §1

CAMK2D = target: T36, CAMK2D (Homo sapiens, UniProt Q13557)
T36 construct: purchased Eurofins/DiscoverX KINOMEscan scanMAX
Experimental: as §1

PHKG2 = target: T37, PHKG2 (Homo sapiens, UniProt P15735)
T37 construct: purchased Eurofins/DiscoverX KINOMEscan scanMAX
Experimental: as §1

PIK4CB = target: T38, PIK4CB (Homo sapiens, UniProt Q9UBF8)
T38 construct: purchased Eurofins/DiscoverX KINOMEscan scanMAX
Experimental: as §1

PCTK3 = target: T39, PCTK3 (Homo sapiens, UniProt Q07002)
T39 construct: purchased Eurofins/DiscoverX KINOMEscan scanMAX
Experimental: as §1

PAK4 = target: T40, PAK4 (Homo sapiens, UniProt O96013)
T40 construct: purchased Eurofins/DiscoverX KINOMEscan scanMAX
Experimental: as §1

WEE2 = target: T41, WEE2 (Homo sapiens, UniProt P0C1S8)
T41 construct: DNA tag (qPCR barcode); purchased Eurofins/DiscoverX KINOMEscan scanMAX
Experimental: as §1

MINK = target: T42, MINK (Homo sapiens, UniProt Q8N4C8)
T42 construct: purchased Eurofins/DiscoverX KINOMEscan scanMAX
Experimental: as §1

CN1CCN(C2CCC(n3cc(-c4ccc(Oc5ccccc5)cc4)c4c(N)ncnc43)CC2)CC1 (stereo not drawn) [A-419259]
% Control [1]: 0.5%
% Control (HIPK1): 80%
% Control (FLT1): 29%
% Control (ERBB3): 0.2%
% Control (MLCK): 66%
% Control (MYO3A): 2.7%
% Control (CDK11): 3.9%
% Control (PIP5K1C): 89%
% Control (MKNK1): 63%
% Control (EPHB4): 100%
% Control (LIMK1): 31%
% Control (GRK7): 62%
% Control (PRKCD): 89%
% Control (PIK3CA(Q546K)): 100%
% Control (ERK8): 100%
% Control (KIT): 0.15%
% Control (PKAC-alpha): 100%
% Control (S6K1): 27%
% Control (WNK3): 46%
% Control (PKAC-beta): 100%
% Control (BRSK2): 10%
% Control (p38-delta): 99%
% Control (DRAK1): 65%
% Control [2]: 0.35%
% Control (FGFR3): 30%
% Control [3]: 0.5%
% Control (MLK1): 88%
% Control (CTK): 89%
% Control (KIT-autoinhibited): 6.9%
% Control (PIK3CA(E545A)): 100%
% Control (PIK3CD): 100%
% Control (EPHB3): 100%
% Control (YSK1): 84%
% Control (KIT(V559D,T670I)): 40%
% Control (MAP3K1): 92%
% Control (CAMK2D): 100%
% Control (PHKG2): 100%
% Control (PIK4CB): 83%
% Control (PCTK3): 100%
% Control (PAK4): 93%
% Control (WEE2): 90%
% Control (MINK): 30%
